The record followed here is PubChem BioAssay (NCI).

Common to all, as to experiment: NCI anticancer screen, dose series, 48 h
Assay [1] concerns ACHN renal.
The subject of assay [2] is CCRF-CEM leukemia.
For assay [3], the system named is HOP-62 NSCLC.
Assay [4] concerns MDA-MB-435.
The test system of assay [5] is MOLT-4 leukemia.
The test system of assay [6] is NCI-H460 lung.
The test system of assay [7] is OVCAR-3 ovarian.
The subject of assay [8] is OVCAR-5 ovarian.
Assay [9] deals with PC-3 prostate.
Assay [10] has as its system SNB-75 CNS.

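Briefly, cells in 96-well plates were exposed to five compound concentrations for 48 h, and endpoints were estimated by linear interpolation. GI50: concentration for 50% inhibition of growth. TGI is the concentration that stops growth completely.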

For the compound `C=C1C(=O)O[C@H]2[C@H]1CC/C(COC(=O)NCc1c[nH]c3ccccc13)=C\CC[C@@]1(C)O[C@@H]21`, the GI50 in assay [1] is 1.97 µM; in assay [2] it was 1.48 µM; in assay [3], 11.2 µM; in [4] it was 2.57 µM; in assay [5] it was 2.71 µM; in assay [6], 8.14 µM. For the same compound, the GI50 was 1.71 µM in [7], 3.63 µM in assay [8], 5.16 µM in assay [9] and 9.86 µM in assay [10]. Besides, the TGI in assay [1] worked out at 7.86 µM; in assay [2], 8.27 µM; in assay [3], 23.7 µM; in [4] it was 11.8 µM; in assay [5], 9.13 µM; in assay [6] it was 23.1 µM. Besides, the TGI in [7] turned out to be 4.57 µM; in [8], 14.4 µM; in assay [9], 18.9 µM; in assay [10], 21.7 µM.

`O=C(/C=C/c1ccc(Cl)cc1)c1ccccc(=O)c1O`: the TGI in assay [1] was determined as 6.66 µM; in assay [2], 0.773 µM; in [3], 21.1 µM; in assay [4] it was 20.8 µM; in assay [5] it was 16.2 µM; in assay [6], 3.04 µM. For the same compound, the TGI was found to be 19.8 µM in assay [7], 19.8 µM in [8], 20 µM in assay [9] and 12.3 µM in assay [10].

Turning to `NC(=NCc1ccccc1)C(N=Nc1ccccc1)C(=O)NCc1ccccc1` (centres undefined), the GI50 in assay [1] is 18.1 µM; in [2], 3.54 µM; in [3], 12.6 µM; in assay [4], 5.51 µM; in [5], 5.53 µM; in [6], 2.37 µM. Further, the GI50 in assay [7] was 1.93 µM; in assay [8], 18 µM; in [9] it was 1.84 µM; in assay [10] it was 13.2 µM. Besides, the TGI in [1] is 39.3 µM; in assay [2], 84.4 µM; in [3] it was 29.6 µM; in [4], 25.5 µM; in [5] it was > 100 µM; in [6], 6.18 µM. Besides, the TGI was determined as 3.75 µM in assay [7], 44.7 µM in [8], 4.02 µM in assay [9] and 27.7 µM in assay [10].

Take `COC(=O)c1ccc2c(c1)C(=O)c1c-2n(CCCCl)c(=O)c2cc([N+](=O)[O-])ccc12`: the GI50 in assay [1] is 45.2 µM; in [2], 52.8 µM; in assay [3], 43.3 µM; in assay [4], > 100 µM; in assay [5], 26 µM; in assay [6], 23.1 µM. For the same compound, the GI50 in [7] is 96.6 µM; in assay [8], > 100 µM; in assay [9], > 100 µM; in assay [10], 61.7 µM. Also, the TGI in assay [1], in [2], in assay [3], in assay [4], in assay [5] and in assay [6] was > 100 µM throughout. Further, the TGI in assay [7], in assay [8], in [9] and in [10] was > 100 µM each time.

For the compound `COc1cccc(/C=C/C(=O)c2ccc(SC)cc2)c1OC`, the GI50 is 17.2 µM in assay [1]; 14.2 µM in assay [2]; 19.3 µM in assay [3]; 17.8 µM in [4]; 8.11 µM in [5]; 17.9 µM in assay [6]. The GI50 in assay [7] is 16.4 µM; in assay [8], 18.7 µM; in assay [9], 17 µM; in [10], 14.6 µM. The TGI in [1] came out at 33.7 µM; in assay [2] it was 97.5 µM; in [3], 34.2 µM; in assay [4] it was 35.3 µM; in assay [5] it was 61.6 µM; in [6] it was 36.2 µM. In addition, the TGI was 32 µM in [7], 34.2 µM in [8], 43.8 µM in assay [9] and 30.7 µM in assay [10].

As to `C[C@H]1/C(=C/C(=O)OCCN(C)C)CC[C@H]2[C@H]1C(=O)C[C@H]1C(C)(C)[C@@H](O)CC[C@]21C`, the TGI in assay [1], in assay [2], in assay [3], in assay [4], in [5] and in assay [6] was > 100 µM throughout. Further, the TGI in assay [7], in [8], in [9] and in [10] was > 100 µM throughout. For the same compound, in [10], the GI50 was > 100 µM.

With `BrC(Br)=C1C(=C(Br)Br)C(Br)C1Br` (centres undefined), the TGI was found to be 1.49 µM in assay [1]; 1.6 µM in assay [2]; 2.88 µM in [3]; 2.82 µM in assay [4]; 1.35 µM in assay [6]; 2.15 µM in assay [7]. Moreover, the TGI turned out to be 3.27 µM in assay [8], 5.42 µM in assay [9] and 5.62 µM in [10].

As to `O=S(=O)(CCN1CCOCC1)Nc1cc(-c2ccc3ncnc(Nc4ccc(F)c(Cl)c4)c3c2)cnc1Cl`, the GI50 is 0.735 µM in assay [1]; 0.455 µM in assay [2]; 0.578 µM in [3]; 0.712 µM in assay [4]; 1.56 µM in assay [6]; 0.391 µM in [7]. The GI50 is 0.492 µM in [8] and 0.36 µM in assay [9]. The TGI was > 100 µM in [1]; > 100 µM in assay [2]; 14.2 µM in [3]; 10.3 µM in assay [4]; 19.6 µM in [6]; 3.91 µM in [7]. The values for the TGI in assay [8] and in assay [9] were > 100 µM and 15.1 µM, respectively.

Consider `O=C1C(Cl)=C(Nc2ccc(Nc3ccccc3)c(NC3=C(Cl)C(=O)c4ccccc4C3=O)c2)C(=O)c2ccccc21`, for which the GI50 in [2] was 3.71 µM; in assay [3], 2.71 µM; in [4], 25 µM; in assay [6], 3.35 µM; in assay [7], 1.69 µM; in [8] it was 24 µM. Moreover, the GI50 is 3.63 µM in [9] and 2.3 µM in assay [10]. Also, the TGI in assay [2] was > 100 µM; in assay [3], > 100 µM; in [4], > 100 µM; in assay [6], 13 µM; in assay [7], 3.21 µM; in [8] it was 66.8 µM. Besides, the TGI in assay [9] is 24.8 µM; in assay [10], 6.97 µM.

For `CC(=O)Nc1cc2cc(N)ccc2oc1=O`, the TGI in assay [1], in assay [2], in [3], in assay [4], in [5] and in [6] was > 100 µM each time. Also, the TGI in [7], in [8] and in assay [9] was > 100 µM each time.

Turning to `CSC(=NC#N)S/C=C/C(=O)c1ccccc1`, the GI50 was 28.6 µM in [1]; 1.77 µM in assay [2]; 36 µM in assay [3]; 34.7 µM in assay [4]; 22.6 µM in [5]; > 100 µM in [6]. The GI50 in [7] is 31.5 µM; in [8], 62 µM; in assay [9], 33.2 µM. For the same compound, the TGI in assay [1] is 76.9 µM; in assay [2] it was 15 µM; in [3], > 100 µM; in assay [4], > 100 µM; in assay [5], > 100 µM; in [6], > 100 µM. For the same compound, the TGI in [7], in assay [8] and in assay [9] was > 100 µM in each case.

On to `CC(C)N1CCN(c2ccncc2S(=O)(=O)N2CCCCC2)CC1`, for which the TGI in assay [1], in [3], in assay [4], in assay [6], in [7] and in assay [8] was > 100 µM throughout. The TGI in [9] and in assay [10] was > 100 µM each time.

On to `COc1cc2c(c(OC)c1OC)-c1ccc(O)cc1[C@@H](NC(C)=O)CC2`, for which the GI50 was 0.166 µM in assay [1]; 0.0318 µM in assay [2]; 0.051 µM in assay [3]; 0.0206 µM in assay [4]; 0.0578 µM in assay [5]; 0.0363 µM in assay [6]. The GI50 in assay [7] was 0.0232 µM; in [8] it was 0.215 µM; in assay [9], 0.0456 µM. Also, the TGI in assay [1] is > 100 µM; in [2], 1.62 µM; in [3] it was > 100 µM; in assay [4], 0.0463 µM; in assay [6], > 34.9 µM; in [7], 0.0513 µM. The TGI in [8] and in assay [9] was > 100 µM in each case.

For `CC1CCN(Cc2ccc(NC(=O)c3cc4ccc5cccnc5c4[nH]3)cc2)CC1`, the GI50 in assay [1] was 5.47 µM; in assay [3], 5.27 µM; in [4], 1.99 µM; in assay [5], 3 µM; in [6], 4.16 µM; in assay [7] it was 7.83 µM. Besides, the GI50 is 11.3 µM in assay [8], 5.1 µM in assay [9] and 10.8 µM in [10]. Also, the TGI in assay [1] is 23.1 µM; in assay [3], 33.9 µM; in assay [4], 4.24 µM; in [5], 9.85 µM; in assay [6], 28.1 µM; in assay [7], 39.2 µM. The TGI in [8] stood at 35.3 µM; in assay [9], 23.7 µM; in assay [10], 27.8 µM.

With `C[C@@]1(C(=O)O)CCC[C@]2(C)C1CC[C@@]13C[C@@](O)(CC[C@]12O)[C@@]1(CO1)C3` (some centres undefined), the GI50 in assay [1], in assay [2], in [3], in assay [4], in [6] and in assay [7] was > 100 µM throughout. Moreover, the GI50 in assay [8], in assay [9] and in [10] was > 100 µM each time. Besides, the TGI in [1], in assay [2], in [3], in [4], in assay [6] and in assay [7] was > 100 µM throughout. The TGI in [8], in assay [9] and in [10] was > 100 µM throughout.

For `O=c1[nH]c2ccccc2c2nc3ccccc3n12`, the TGI in [1], in assay [2], in assay [3], in assay [4], in assay [5] and in [6] was > 100 µM throughout. In addition, the TGI in assay [7], in [8] and in assay [9] was > 100 µM each time.

For the compound `C=C(CN1CCN(c2ccc(C(F)(F)F)cc2)CC1)c1ccc(C(=O)Nc2ccccc2N)cc1`, the GI50 was 9.64 µM in assay [1]; 8.38 µM in assay [3]; > 25.2 µM in [4]; 0.153 µM in assay [5]; 3.44 µM in assay [6]; 12 µM in [7]. The GI50 in assay [8] is > 100 µM; in [9] it was 1.29 µM; in assay [10], 12.4 µM. In addition, the TGI is > 100 µM in assay [1]; > 45 µM in assay [3]; > 100 µM in [4]; 1.06 µM in assay [5]; > 100 µM in assay [6]; > 100 µM in assay [7]. The figures for the TGI in [8], in assay [9] and in [10] were > 100 µM, > 65.7 µM and 51.8 µM, respectively.

With `Cc1c(O)c(N=Nc2nc3ccccc3s2)c2ccccc2c1O`, the GI50 in assay [1] is 19.4 µM; in assay [2], > 50 µM; in [3], > 50 µM; in [4] it was 19.8 µM; in assay [5], > 50 µM; in assay [6], 28 µM. Moreover, the GI50 in assay [7] is 12.3 µM; in assay [8], > 50 µM; in assay [9], 32 µM. For the same compound, the TGI in [1], in assay [2], in [3], in assay [4], in [5] and in [6] was > 50 µM throughout. Also, the TGI in assay [7], in assay [8] and in [9] was > 50 µM each time.

`CC(=O)OC1CCC2(C)C(CCC3C2CC(=O)C2(C)C3CC(N3CC3)C2C(C)=O)C1` (centres undefined): the TGI in assay [1] was 29.6 µM; in [3], > 100 µM; in assay [4], 51.5 µM; in [5], 34.4 µM; in assay [6] it was 33.9 µM; in [7], 97.3 µM. The values for the TGI in assay [8], in assay [9] and in [10] were > 100 µM, 30 µM and 42.6 µM, respectively.
